Measurements published in patent US20020035038A1, “Fungicidal combinations comprising thieno[2,3-d]pyrimidin-4-one” (priority 1998, published 2002).

Tested on: Erysiphe graminis f.sp. hordei
Assay: Leaf-disc-test, efficacy against Erysiphe graminis f.sp. hordei on barley (Example B-2 c)
Assay type: in vivo
Conditions: single active ingredient, curative application 2 days after inoculation, barley leaf segments, infection in control: 68%
Description: A synergistic effect exists whenever the action of an active ingredient combination is greater than the sum of the actions of the individual components. The action to be expected E for a given active ingredient combination obeys the so-called COLBY formula and can be calculated as follows (COLBY, S. R. “Calculating synergistic and antagonistic responses of herbicide combination”. Weeds, Vol. 15, pages 20-22; 1967): According to Colby, the expected (additive) action of active ingredients I+II using p+q ppm of active ingredient is [formula] If the action actually observed (O) is greater than the expected action (E), then the action of the combination is superadditive, i.e. there is a synergistic effect. Efficacy Against Erysiphe graminis f.sp. hordei on Barley c) Leaf-disc-test Barley plants, cv. “Hasso” were cultivated under greenhouse conditions at 20° C. in TKS-1 standard soil for 10 days. Leaf segments with a length of 10 mm were cut out of the primary leaves and were placed with the upper side up in multiple well plates (24 wells per plate). Each well contains 2 ml of 0.2% water agar+35 ppm benzimidazole. The fungicide treatment was carried out 2 days after inoculation (curative-application) by a total volume of 400 μl that were sprayed with an “air brush” on 4 leaf segments meaning 4 replicates. The inoculated leaf segments were incubated for 1 week in an incubation chamber by 18° C., the first two days in the dark, and the five next days by 12 hours light. After the incubation period, the % leaf attack was estimated with the help of a binocular and the % activity was calculated relative to the check.

| SMILES | % activity observed (conc. 0.0025 %) | % activity observed (conc. 0.01 %) | % activity observed (conc. 0.025 %) |
| --- | --- | --- | --- |
| CC(C1CC1)C(O)(Cn1cncn1)c1ccc(Cl)cc1 (stereo not drawn) [cyproconazole] | 36% |  |  |
| CC1COC(Cn2cncn2)(c2ccc(Oc3ccc(Cl)cc3)cc2Cl)O1 (stereo not drawn) [difenoconazole] |  | 0% | 41% |
